Entries after “also recorded” stand apart in the source; their conditions may differ.
Columns and labels:
K562 cells = assay: Dose response, total and viable cells by trypan blue exclusion (FIG. 3); assay type: cell-based, human; settings: day 4
Experimental: FIG. 3 A FIG. 3E Cell viability as determined by the comparative numbers of total and viable K562 cells in the presence of increasing concentrations of (A) phenoxyacetic acid, (B) dihydrocinnamic acid, (C) butyric acid ethyl ester, (D) arginine butyrate, and (E) isobutyramide.
Dose response curves at dosages of up to 2.0 mM were also determined for phenoxyacetic acid (PAA; FIG. 3A), dihydrocinnamic acid (DHC; FIG. 3B), butyric acid ethyl ester (BAEE; FIG. 3C), arginine butyrate (AB; FIG. 3D) and isobutyramide (IBT; FIG. 3E). Cells were counted on day 4 of treatment and viable cells identified by trypan blue exclusion.

[1] = tested on: γ-globin gene promoter and HSS-II region of the locus control region; assay: In vivo footprinting (LM-PCR) of patients' erythroblasts before and during treatment; design: species or system human
Experimental: To determine whether this increase was due to the transcriptional modulation of the γ-globin genes and, if so, to examine whether protein-DNA interactions of regulatory sequences for γ-globin gene expression have been changed, in vivo footprinting analysis of the γ-globin gene promoter and HSS-II region of the locus control region (LCR) were performed. […] Compared to conventional in vitro footprinting methods, which are ordinarily employed to analyze protein-DNA interactions for promoter regions and fail to disclose tissue-specific binding of nuclear proteins to cis-acting elements, in vivo footprinting technique is able to provide bona fide information on transcription factors binding to cis-acting elements that reflects in vivo situations.
Erythroid cell-rich fractions were prepared from patients' peripheral blood or bone marrow before and during treatment, and were in vivo methylated using DMS. […] All of the footprints were analyzed two or more times to ensure reproducibility.
In the γ-globin gene promoter, a DNA fragment extending up to −200 by relative to the transcription start site is sufficient to direct efficient transcription of the γ-globin genes (K. T. McDonagh et al., J. Biol. Chem. 266:11965-74, 1991; M. J. Urich Blood 75:990-99, 1990). […] Erythroblasts from a patient with sickle cell anemia, before and after butyrate treatment were analyzed. […]

[2] = tested on: proximal promoter of the gamma globin gene in K562 cells; assay: Gamma globin promoter-neomycin (NEO) transfection, colony survival in G418; assay type: cell-based, human; settings: 1 mM, 8 weeks
Experimental: Gamma globin promoter-neomycin transfection experiments were performed to determine if compounds act by inducing an increase in activity from the proximal promoter of the gamma globin gene. Constructs containing 61 by of the proximal gamma globin promoter were linked to the reporter gene for neomycin phosphotransferase (NEO) and transfected into permissive K562 cells by electroporation. After 18 hours, transfected cells were passed at 10^3 cells per well into RPMI media containing G418 (neomycin), which kills all mammalian cells unless the gene for NEO is expressed. Phenoxyacetic acid and thiophenoxyacetic acid were added to some of the cells plated into the RPMI/G418 media at concentrations of 1 mM. Cultures were incubated for 8 weeks with media changes performed as needed. Colonies which survived and grew in the presence of G418 were scored and the number of such colonies was compared to those generated when the cells were plated into G418 media without the test compounds. No colonies in the 24 wells survived in the absence of compounds. There was a greater than 6-fold (>600%) increase in proportions of colonies surviving the presence of phenoxyacetic acid (6/24 wells) and a three-fold (300%) increase in survival in the presence of thiophenoxyacetic acid (3/24 wells).

[3] = tested on: BFU-e (burst forming unit-erythroid) colonies from peripheral blood mononuclear cells; assay: Stimulation of erythroid proliferation in cell cultures (BFU-e colony growth); assay type: cell-based, human; settings: 0.1 mM; 13-14 days; compared with control cultures
Experimental: Peripheral blood was collected from normal volunteers and patients with anemia due to sickle cell disease or thalassemia. Mononuclear cells were isolated by Ficoll-Hypaque (Pharmacia Biotech; Piscataway, N.J.) centrifugation and cultured in Iscove's Modified Dulbecco's Media (IMDM; GIBCO/BRL; Grand Island, N.Y.) supplemented with 10% fetal calf serum, 300 μg/ml glutamine, 3 units/ml IL-3 (Amgen; Thousand Oaks, Calif.), and 2 units/ml erythropoietin (Terry Fox Labs; Vancouver, B.C.). Chemical compounds were obtained from Sigma Chemical (St. Louis, Mo.) or Aldrich Chemical (Milwaukee, Wis.), unless otherwise indicated, and formulated into pharmaceutical compositions by dissolving in aqueous solutions of media or sterile water pH adjusted to about 7.4. Solutions were sterilized by passage at least once through 0.22 micron Nalgene filters and added to cell cultures at final concentrations that are pharmaceutically achievable in vivo (typically between about 0.1 mM to 2.0 mM). Cells were incubated with compounds for between 13-14 days at 37° C. in humidified 5% CO2, and fed and passed, as necessary. Colony growth, proportion of fetal globin-expressing cells and amounts of fetal globin production were assayed. Results are presented in Table 1 as BFU-e stimulation (colony growth).

Structure (SMILES): CCCC(=O)O [AB, arginine butyrate]
- cell growth (dose response, FIG. 3) (K562 cells; concentrations above 0.2 mM): suppressed cell growth
- in vivo footprints of HSS-II ([1]; erythroblasts from a treated sickle cell patient): novel in vivo footprints that were not seen in a pre-treatment sample became apparent
- in vivo footprints over the γ-globin promoter ([1]; erythroblasts of treated patients with sickle cell anemia or β-thalassemia): induces multiple transcription factors which interact with the γ-globin gene promoter; also recorded: degree of protection on G residues in FRE-γ1 consistently increased

Structure (SMILES): O=C(O)COc1ccccc1 [PAA, Phenoxyacetic acid]
- proliferation (dose response, FIG. 3) (K562 cells; up to 2.0 mM): did not significantly inhibit proliferation
- increase in proportions of colonies surviving G418 [2]: > 600%
- wells with surviving colonies ([2]; 0 of 24 wells without compounds): 6/24
- increase in proportions of colonies surviving G418 ([2]; no colonies without compounds): greater than 6 fold
- BFU-e Stimulation (colony growth) [3]: 135%
